Experiment [1] deals with T1, RhoA binding to PDZ-RhoGEF (Homo sapiens, UniProt P61586).
T1 construct: made in house; host or cells: Cos-7 cells (PDZ-RhoGEF, used as lysate)
The experiment can be described thus: Complex formation assay, RhoA with PDZ-RhoGEF. Here is the method: Trio and Tiam-1 co-precipitate with GST-Rac1, but not GST or GST-Cdc42.
After an incubation at 4° C. for 30 minutes, the beads associated (His)6-TrioN were detected by anti-His Western blotting. The blots were quantified by densitometry analysis. The results are representative of three measurements. […] The association of Rac1 with Tiam1 was examined by anti-His blot after anti-myc immunoprecipitation. […] The RhoA associated PDZ-RhoGEF was probed with anti-AU antibody after affinity precipitation by glutathione agarose beads.

Experiment [2] addresses PDZ-RhoGEF-stimulated mantGDP/GTP exchange of RhoA (Homo sapiens, UniProt P61586). In words: In vitro guanine nucleotide exchange assay (mant-GDP), RhoA/PDZ-RhoGEF. Particulars: 200 μM compound. Type of experiment: biochemical.
A further experiment addresses T2, endogenous RhoA (Mus musculus, UniProt Q9QUI0).
T2 construct: endogenous in cells; host or cells: NIH 3T3 fibroblasts
In words: Endogenous Rho GTPase activity assay (GST-Rhotekin pull-down), RhoA in NIH 3T3 cells. The conditions noted are these: 10% serum. The experiment is classed as cell-based.

In another experiment the test system is NIH 3T3 cells. In words: Cell growth assay of wild type, L61Rac1- or GEF-expressing NIH 3T3 cells. The experiment is classed as cell-based. The conditions noted are these: 100 μM compound. From the text:
The cells were split in triplicate in 6-well plates at a density of 5×10^4 cells per well. […] The foci numbers of the respective cells were quantified 14 days after transfection. […] The number and the morphology of the colonies were examined under a microscope.
Due to their ability to directly activate Rho GTPases, Db1 family GEFs are potent stimulators of cell proliferation.

In a further experiment the test system is platelets. In words: Platelet adhesion, secretion and aggregation elicited by agonists. Type of experiment: cell-based, mouse and human. The conditions noted are these: induced by ADP, PLC, U46619, collagen, thrombin, or phorbol ester. An excerpt: In the studies disclosed hereinbelow, a dual approach of genetic targeting of Rac GTPases in mice and specific pharmacological inhibition of Rac GTPases in both mouse and human platelets was used to establish the central role of Rac GTPases in platelet function.
Treatment of mice with Compound NCI23766, Formula IV. […] This process was described above in the Experimental section of this document.

In experiment [3] the test system is PC-3 cells. The experiment can be described thus: Matrigel cell invasion assay. The conditions noted are these: 25 μM compound, 24 hrs.
Method: Cell invasion assays. The cell invasion assays are performed using 6.4-mm Biocoat Matrigel invasion chambers with 8.0-micron pore size PET membrane (Becton-Dickinson) according to the manufactory instructions. Briefly, 5×10^4 cells are resuspended in 0.5 ml of serum free culture medium and added to the upper chamber. 10% fetal bovine serum in the culture medium is used as a chemo-attractant in the lower chamber. After the cells are incubated for overnight, the number of cell passed through the Matrigel is counted.
Cells invaded through Matrigel matrix were visualized with Giemasa staining.
For experiment [4], the system named is PC-3 cells. In words: Anchorage independent growth in soft agar.
The test system of experiment [5] is PC-3 cells. The experiment can be described thus: PC-3 cell proliferation (CellTiter 96 AQueous assay). The conditions noted are these: 5% calf serum, indicated concentrations.
Method: Cell growth assay. […] The growth rate of the prostate PC-3 cells is measured by the CellTiter 96 AQueous assay (Promega). 1,500 cells/well in 200 μl of 5% FBS medium are plated in 96-well plates and are grown under normal conditions. Cultures are assayed in 0, 1, 2, 3, 4, or 5 days by the addition of 20 μl of the combined MTS/PMS solution followed by incubation for one hour at 37° C. Absorbency is measured at a wavelength of 490 nm on an automated microplate reader.
The cells were split in triplicate in 96-wells at 1.5×10^3 cells per well. Cell numbers were assayed by using CellTiter 96 AQueous cell proliferation assay kit in different days.
The next experiment relates to Swiss3T3 cells. In words: Immunofluorescence of PDGF-stimulated lamellipodia formation. The conditions noted are these: 100 μM compound, 10 nM PDGF.

We go through 1 compound from patent US7612080B2, “GTPase inhibitors and use thereof for controlling platelet hyperactivity” (Cincinnati Children's Hospital Medical Center, priority 2004, dated 2009).

T2 sequence (Q9QUI0 whole entry): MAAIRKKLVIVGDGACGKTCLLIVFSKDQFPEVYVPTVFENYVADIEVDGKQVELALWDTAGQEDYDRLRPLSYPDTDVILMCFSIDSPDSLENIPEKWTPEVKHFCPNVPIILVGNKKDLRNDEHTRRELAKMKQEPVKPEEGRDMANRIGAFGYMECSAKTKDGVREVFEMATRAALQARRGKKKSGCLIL
Sequence of PDZ-RhoGEF-stimulated mantGDP/GTP exchange of RhoA (P61586 whole entry): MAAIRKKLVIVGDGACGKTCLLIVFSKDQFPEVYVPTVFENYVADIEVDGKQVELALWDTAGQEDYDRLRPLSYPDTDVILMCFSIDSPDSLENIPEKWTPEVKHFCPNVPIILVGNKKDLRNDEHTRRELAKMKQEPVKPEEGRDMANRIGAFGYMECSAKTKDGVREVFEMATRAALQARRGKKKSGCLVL
T1 sequence (P61586 whole entry): as above
Method for Swiss3T3 cells: Immunofluorescence. […] The cellular actin is stained with TRITC-labeled phalloidin (Sigma) at 10 μg/ml in PBS for 40 min at room temperature. The actin and cell morphological changes are visualized by fluorescence microscopy.
The cells were fixed and stained with Rhodamine-labeled phalloidin.

On to `CCN(CC)CCCC(C)Nc1nc(C)cc(Nc2ccc3nc(C)cc(N)c3c2)n1` (racemic) [Compound NCI23766, N6-(2-((4-(diethylamino)-1-methylbutyl)amino)-6-methyl-4-pyrimidinyl)-2-methyl-4,6-quinolinediamine], for which, in [1], the “interference with RhoA binding to PDZ-RhoGEF” value was “does not interfere”. Moreover, the “effect on PDZ-RhoGEF-stimulated mantGDP/GTP exchange of RhoA” value in experiment [2] is on record as “little impact”. The “level of RhoA-GTP in cells” value on endogenous RhoA is “slightly increased level”. Also, in the experiment on NIH 3T3 cells (5% serum), the “growth of wild type NIH 3T3 cells” value was “slow the growth” and the “growth rate of Rac1L61 expressing cells” value was “no effect”. Further, the “cell growth induced by the Rac specific GEF Trio” value in the experiment on NIH 3T3 cells (NIH 3T3, 5% serum) was “capable of inhibiting”. Moreover, in the experiment with platelets, the platelet adhesion entry is given as “worked remarkably in inhibiting”, the platelet aggregation entry is “worked remarkably in inhibiting” and the platelet secretion entry is on record as “worked remarkably in inhibiting”. Further, the PC-3 cell invasion entry with PC-3 cells [3] is reported as “significantly inhibits”. The “size of colonies of treated cells versus untreated” value in the experiment with PC-3 cells [4] is on record as “much smaller”. The colony-forming activities remaining entry in the experiment on PC-3 cells [4] (25 μM compound) is on record as “Approximately 10%”. The colony-forming activities remaining with PC-3 cells [4] (50 μM compound) is recorded as roughly 1%. Moreover, the “proliferation rates of PC-3 cells” value with PC-3 cells [5] was “inhibited by Compound NCI23766 in a dose dependent manner”. Also, the “PDGF induction of lamellipodia at the cell edges” value in the experiment with Swiss3T3 cells (5 min) is reported as “only marginally effective”. The “PDGF induction of lamellipodia at the cell edges” value with Swiss3T3 cells (10 min) is reported as “completely ineffective”.
